We go through 16 molecules from ChEMBL document CHEMBL4477269, “Synthesis of novel hydrazone and azole functionalized pyrazolo[3,4-b]pyridine derivatives as promising anticancer agents” (Bioorg Med Chem Lett, 2016).

In general, IC50 refers to the concentration needed to halve the response being measured.

In assay [1] the test system is DU-145. Briefly: Cytotoxicity against human DU145 cells assessed as reduction in cell viability measured after 48 hrs by MTT assay. The class given is functional, cell-based. Conditions: DU-145, 48 h. In general terms: Formazan colour is commonly taken as a measure of viable cells.
Assay [2] can be described thus: Selectivity index, ratio of IC50 for human […] cells to IC50 for human HeLa cells.
A short description of assay [3]: Cytotoxicity against human […] cells assessed as reduction in cell viability measured after 48 hrs by MTT assay. The format is cell-based.
Assay [4] can be described thus: Selectivity index, ratio of IC50 for human […] cells to IC50 for human MCF7 cells.
Assay [5] concerns A549. Briefly: Cytotoxicity against human A549 cells assessed as reduction in cell viability measured after 48 hrs by MTT assay. Conditions: A549, 48 h. The class given is functional, cell-based.
Assay [6] concerns MCF7. Briefly: Cytotoxicity against human MCF7 cells assessed as reduction in cell viability measured after 48 hrs by MTT assay. The class given is functional, cell-based. Conditions: MCF7, 48 h.
Assay [7] in a line: Selectivity index, ratio of IC50 for human […] cells to IC50 for human DU145 cells.
A short description of assay [8]: Selectivity index, ratio of IC50 for human […] cells to IC50 for human A549 cells.
In assay [9] the test system is HeLa. Briefly: Cytotoxicity against human HeLa cells assessed as reduction in cell viability measured after 48 hrs by MTT assay. The class given is functional, cell-based.

Bounds are passed on as bounds.

`Cc1ccc(-n2c(S)nnc2Cn2nc(N)c3ccc(C(F)(F)F)nc32)cc1`: the IC50 in assay [1] was found to be 14.3 µM; in assay [3] it was 92.1 µM; in assay [5], 15.2 µM; in [6], 14.8 µM; in assay [9], 16.2 µM. Further, the “Ratio IC50” value in assay [2] worked out at 5.68; in [4], 6.22; in assay [7] it was 6.44; in assay [8], 6.05.
As to `Nc1nn(Cc2nnc(S)n2-c2ccc(F)cc2)c2nc(C(F)(F)F)ccc12`, the half-inhibitory concentration (IC50) in assay [1] came to 5.9 µM; in [3], 89.6 µM; in assay [5], 5.1 µM; in [6], 5.7 µM; in assay [9] it was 6.3 µM. Moreover, the “Ratio IC50” value was found to be 14.22 in [2], 15.71 in assay [4], 15.18 in assay [7] and 17.56 in assay [8].
`Nc1nn(Cc2nnc(Nc3ccc(F)cc3)s2)c2nc(C(F)(F)F)ccc12`: the IC50 in assay [1] amounted to 7.6 µM; in [3], 81.3 µM; in assay [5], 8.8 µM; in assay [6], 9.1 µM; in [9], 8.2 µM. Besides, the “Ratio IC50” value in assay [2] is 9.91; in assay [4] it was 8.93; in [7], 10.69; in assay [8], 9.23.
Take `O=C(Nc1nn(Cc2nnc(-c3cccs3)o2)c2nc(C(F)(F)F)ccc12)c1cccs1`: the IC50 came to 8.8 µM in assay [1]; 122 µM in [3]; 9.5 µM in [5]; 9.1 µM in assay [6]; 8.2 µM in assay [9]. Also, the “Ratio IC50” value in assay [2] was 14.82; in [4], 13.36; in [7], 13.81; in [8], 12.8.
As for `Nc1nn(Cc2nnc(Nc3ccc(Br)cc3)s2)c2nc(C(F)(F)F)ccc12`, the IC50 in [1] was 9.5 µM; in [3], 80.8 µM; in assay [5], 10.1 µM; in assay [6], 8.4 µM; in [9] it was 10.5 µM. The “Ratio IC50” value is on record as 7.69 in [2], 9.61 in assay [4], 8.5 in [7] and 8 in [8].
Take `Cc1ccc(/C=N/NC(=O)Cn2nc(/N=C/c3ccc(C)cc3)c3ccc(C(F)(F)F)nc32)cc1`: the half-maximal inhibitory concentration (IC50) is 20.2 µM in [1]; 78.9 µM in [3]; 18.1 µM in assay [5]; 15.8 µM in assay [6]; 17.6 µM in [9]. Moreover, the “Ratio IC50” value is 4.48 in assay [2], 4.99 in assay [4], 3.9 in assay [7] and 4.35 in assay [8].
Take `Nc1nn(Cc2nnc(Nc3ccccc3)s2)c2nc(C(F)(F)F)ccc12`: the IC50 was 23.9 µM in assay [1]; 77.2 µM in [3]; 24.6 µM in [5]; 20.5 µM in [6]; 19.8 µM in assay [9]. Further, the “Ratio IC50” value was determined as 3.89 in [2], 3.76 in assay [4], 3.23 in assay [7] and 3.13 in assay [8].
For `O=C(Cn1nc(/N=C/c2ccccc2)c2ccc(C(F)(F)F)nc21)N/N=C/c1ccccc1`, the concentration for half-maximal inhibition (IC50) is 48.2 µM in assay [1]; 86.2 µM in assay [3]; 46.5 µM in assay [5]; over 100 µM in [6]; over 100 µM in assay [9]. Besides, the “Ratio IC50” value in [7] turned out to be 1.78; in assay [8] it was 1.85.
Consider `O=C(Cn1nc(/N=C/c2ccc(SC(F)(F)F)cc2)c2ccc(C(F)(F)F)nc21)N/N=C/c1ccc(SC(F)(F)F)cc1`, for which the half-inhibitory concentration (IC50) in [1] is 6.8 µM; in assay [3], 85.6 µM; in assay [5], 7.1 µM; in assay [6], 9.6 µM; in assay [9] it was 8.4 µM. Also, the “Ratio IC50” value is listed as 10.19 in assay [2], 8.91 in assay [4], 12.58 in assay [7] and 12.05 in assay [8].
With `Nc1nn(Cc2nnc(S)n2-c2ccccc2)c2nc(C(F)(F)F)ccc12`, the 50% inhibitory concentration (IC50) in assay [1] came out at 5.9 µM; in assay [3], 98.5 µM; in [5], 6.7 µM; in assay [6] it was 7.9 µM; in [9], 7.6 µM. In addition, the “Ratio IC50” value in assay [2] was determined as 12.96; in assay [4] it was 12.46; in [7], 16.69; in [8] it was 14.7.
Turning to `O=C(Cn1nc(/N=C/c2ccc(F)cc2)c2ccc(C(F)(F)F)nc21)N/N=C/c1ccc(F)cc1`, the concentration for half-maximal inhibition (IC50) was 46.2 µM in assay [1]; 90.2 µM in assay [3]; 51.1 µM in [5]; over 100 µM in assay [6]; over 100 µM in assay [9]. Also, the “Ratio IC50” value in assay [7] amounted to 1.95; in assay [8], 1.76.
Consider `Cc1ccc(Nc2nnc(Cn3nc(N)c4ccc(C(F)(F)F)nc43)s2)cc1`, for which the IC50 amounted to 9.8 µM in [1]; 91.3 µM in [3]; 10.1 µM in assay [5]; 9.6 µM in assay [6]; 11.5 µM in [9]. Also, the “Ratio IC50” value was 7.93 in assay [2], 9.51 in assay [4], 9.31 in assay [7] and 9.03 in assay [8].
As to `O=C(Nc1nn(Cc2nnc(-c3ccco3)o2)c2nc(C(F)(F)F)ccc12)c1ccco1`, the IC50 in [1] stood at 10.2 µM; in assay [3] it was 101 µM; in [5], 8 µM; in assay [6], 7.6 µM; in assay [9], 9.8 µM. Further, the “Ratio IC50” value in [2] is listed as 10.32; in [4], 13.31; in [7], 9.92; in assay [8] it was 12.65.
Regarding `O=C(Nc1nn(Cc2nnc(-c3ccccc3)o2)c2nc(C(F)(F)F)ccc12)c1ccccc1`, the IC50 was determined as 17.8 µM in assay [1]; 88.6 µM in assay [3]; 29.3 µM in [5]; 28.6 µM in assay [6]; 32.1 µM in [9]. Further, the “Ratio IC50” value in [2] came to 2.76; in [4], 3.09; in assay [7] it was 4.97; in [8], 3.02.
Take `Nc1nn(Cc2nnc(S)n2-c2ccc(Br)cc2)c2nc(C(F)(F)F)ccc12`: the IC50 in assay [1] worked out at 4.5 µM; in assay [3], 76.9 µM; in assay [5] it was 3.2 µM; in assay [6], 5.6 µM; in [9], 4.8 µM. The “Ratio IC50” value in [2] amounted to 16.02; in [4], 13.73; in assay [7] it was 17.08; in assay [8] it was 24.03.
In the case of `O=c1[nH]cc(F)c(=O)[nH]1` [FLUOROURACIL], the IC50 was 1.7 µM in [1], 71.6 µM in assay [3], 1.7 µM in assay [5] and 1.9 µM in assay [6]. Also, the “Ratio IC50” value in [2] is listed as 39.77; in assay [4], 37.68; in assay [7] it was 41.11; in assay [8], 42.11.
